“And” between values parts separate entries of the source, which are not always exact repeats. Identical values can stand only once.
Tested on: HL-60 cells
Test: Annexin V-FITC/PI flow cytometry apoptosis assay in HL-60
Format: cell-based, human
Conditions: 48 h; for induction of apoptosis: annexin V-FITC/PI; for viability at 5 µM: HL-60, 5 μM
Protocol: We have previously reported that compound 1 induces 68.9 ± 0.1% apoptosis in HL-60 cells at a 10 μM concentration after 48 h. Accordingly, in order to evaluate the apoptotic effect of the most relevant derivatives (2, 3, and 4), HL-60 cells were treated with these compounds (at 5 µM, 5 µM, and 4 µM concentration, respectively) for 48 h, stained with annexin V-FITC/PI and analysed using flow cytometry (Figure 5).
Apoptosis was analysed using annexin V fluorescein isothiocyanate (FITC) and propidium iodide (PI). HL-60 cells were seeded at a density of 2 × 10^5 cells/mL in 12 well plates. Cells were then treated with either vehicle (0.5% ethanol), 2 (5 µM), 3 (5 µM), or 4 (4 µM) for 48 h. Following treatment, HL60 cells were collected and washed with annexin V binding buffer (5 mM HEPES, 70 mM NaCl, 1.25 mM CaCl2 pH 7.4) and stained with annexin V-FITC (iQ Corporation, Groningen, The Netherlands) for 20 min. Following washing with annexin V binding buffer, cells were resuspended in PI (0.5 µg/mL) in binding buffer and analysed on BD FACS Canto II flow cytometer (BD Sciences) using FloJo software (Ashland, OR, USA).
Figure 5 Annexin V-FITC vs. PI flow cytometry analysis of HL-60 cancer cells treated with compounds 3 (5 μM), 2 (5 μM) and 4 (4 μM) for 48 h. These figures are representative of three independent experiments. The viable cells, early apoptotic, necrotic and late apoptotic cells are represented by the lower left, lower right, upper left and upper right quadrants, respectively. TEXT PRINTED IN THE PICTURE: 3: 2.45; 32.6; 27.1; 37.8 | 2: 0.56; 11.3; 78.1; 9.96 | 4: 1.09; 40.2; 12.4; 46.2 DOUBTS OF THE COPYIST ABOUT THIS PICTURE: All quadrant numbers are in very small print with no measure or unit; they are listed in the order upper left, upper right, lower left, lower right / 3, upper right quadrant: 32.6, partly covered by data points, 3/8 and 6/8 uncertain / 3, lower right quadrant: 37.8, partly covered by data points, 37.8 or 37.6 / 3, lower left quadrant: 27.1, small print / 2, lower left quadrant: 78.1 or 76.1 / 2, lower right quadrant: 9.96 or 9.95 or 9.98 / 4, upper right quadrant: 40.2, partly covered by data points / 4, lower right quadrant: 46.2 or 48.2, partly covered by data points / The Control and Vehicle plots also print quadrant numbers (Control: 0.16, 1.41, 97.7, 0.77; Vehicle: 0.088, 1.65, 97.3, 0.94); they are not listed because they are not test substances […]
Apoptosis was analysed using annexin V fluorescein isothiocyanate (FITC) and propidium iodide (PI). HL-60 cells were seeded at a density of 2x10^5 cells/mL in 12 well plates. Cells were then treated with either vehicle (0.5% ethanol), 2 (5 µM), 3 (5 µM) or 4 (4 µM) for 48 hours.
Following treatment, HL60 cells were collected and washed with annexin V binding buffer (5 mM HEPES, 70 mM NaCl, 1.25 mM CaCl2 pH 7.4) and stained with annexin V -FITC (iQ Corporation, Groningen, The Netherlands) for 20 minutes. Following washing with annexin V binding buffer, cells were resuspended in PI (0.5 µg/mL) in binding buffer and analysed on BD FACS Canto II flow cytometer (BD Sciences) using FloJo software (Ashlan d, Oregon, United […]
Figure S13. Compounds 3 and 4 promote strong apoptosis when inhibiting HL-60 cell viability.
For flow cytometry, HL60 cells were seeded at a density of 2x10^5 cells/mL in 12 well plates.
Cells were then treated with either vehicle (0.5% ethanol), 2 (5 µM), 3 (5 µM) or 4 (4 µM) for 48 hours. After 48 hours, cells were collected and stained with annexin V – FITC and propidium iodide. Samples were analysed by flow cytometry using the BD FACs Canto II cytometer.
Columns and bars represent the mean ± S.D. of 3 independent experiments. Statistical analysis was performed using one-way ANOVA with Dunnett’s multiple comparisons test comparing vehicle to drug treated samples. *p<0.05 and ***p<0.001.
(1 picture or pasted object on this page, not shown here)

[1] = Homo sapiens, representative plot, read-out: viable cells (lower left quadrant)

Compound	induction of apoptosis (HL-60, 5 µM)	viability at 5 µM [1] [%]	induction of apoptosis (HL-60, 4 µM)	viability at 4 µM (Homo sapiens, HL-60, 4 μM, representative plot, read-out: viable cells (lower left quadrant)) [%]
Cl.Cl.N=C(N)Nc1ccc(Oc2cccc(NC(=N)Nc3ccc(Cl)c(C(F)(F)F)c3)c2)cn1 [Compound 2, 1-(4-Chloro-3-(trifluoromethyl)phenyl)-3-(3-((6-guanidinopyridin-3-yl)oxy)phenyl) guanidine dihydrochloride]	30.7 ± 11.6% and ~30%	78.1	–	–
Cl.N=C(N)Nc1ccc(Oc2cccc(Nc3ccc(Cl)c(C(F)(F)F)c3)c2)cc1 [Compound 3, 1-(4-(3-((4-Chloro-3-(trifluoromethyl)phenyl)amino)phenoxy)phenyl)guanidine hydrochloride]	82.5 ± 11.3% and 82%	27.1	–	–
Cl.N=C(N)Nc1ccc(Oc2cccc(Nc3ccc(Cl)c(C(F)(F)F)c3)c2)cn1 [Compound 4, 1-(5-(3-((4-Chloro-3-(trifluoromethyl)phenyl)amino)phenoxy)pyridin-2-yl)guanidine hydrochloride]	–	–	92.7 ± 5.5% and 92%	12.4
